According to patent US6495348B1, “Mitomycin biosynthetic gene cluster” (priority 1993, dated 2002):

Experiments:
[1] = test system: S. lavendulae wild-type; assay: MC resistance of S. lavendulae, plate count; assay type: cell-based, Streptomyces lavendulae
Text: To establish a physiological role for MCT in S. lavendulae, the corresponding gene (mct) was inactivated by insertion of the aphII gene from transposon Tn5 to give pDHS7704.

[2] = test system: PJS103
Description: Construction of mct-mrd co-expression plasmid. […] The fragment contained the mrd gene under the control of the T7 promoter, including transcriptional terminator sequences (rrnB T1) upstream and downstream of mrd.
The cultures were grown overnight at 37° C. and colony-forming units (CFUS) were determined.
Co-expression of mct and mrd in E. coli. To address the notion that MRD and MCT proteins participate as components of a binding protein-dependent drug export system, the mct and mrd genes were co-expressed in E. coli.

| SMILES | MC resistance level [1] | resistance to mitomycin B [2] |
| --- | --- | --- |
| CO[C@@]12[C@H](COC(N)=O)C3=C(C(=O)C(C)=C(N)C3=O)N1C[C@@H]1N[C@@H]12 [MC, mitomycin C] | > 150 µg/mL |  |
| COC1=C(C)C(=O)C2=C(C1=O)[C@H](COC(N)=O)[C@@]1(O)[C@@H]3[C@H](CN21)N3C (some centres unmarked) [Mitomycin B, mitomycin B] |  | high-level resistance |
